In PubChem BioAssay (NCI):
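Protocol summary: plate cells (96-well), add compound at 5 concentrations, incubate 48 h, interpolate endpoints linearly. GI50 is the concentration that inhibits growth by half. TGI marks complete inhibition of growth.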

Experiments:
Experiment in all cases: NCI tumour cell line growth inhibition, 48 h
NCI-H23 lung = tested on: NCI-H23 lung
HCC-2998 colon = tested on: HCC-2998 colon
SW-620 colon = tested on: SW-620 colon
SK-MEL-5 melanoma = tested on: SK-MEL-5 melanoma
T-47D breast = tested on: T-47D breast
A549 NSCLC = tested on: A549 NSCLC
EKVX NSCLC = tested on: EKVX NSCLC
NCI-H522 lung = tested on: NCI-H522 lung
NCI/ADR-RES ovarian = tested on: NCI/ADR-RES ovarian
SNB-19 CNS = tested on: SNB-19 CNS

SMILES | TGI (NCI-H23 lung) [µM] | TGI (HCC-2998 colon) [µM] | TGI (SW-620 colon) [µM] | TGI (SK-MEL-5 melanoma) [µM] | TGI (T-47D breast) [µM] | TGI (A549 NSCLC) [µM] | TGI (EKVX NSCLC) [µM] | TGI (NCI-H522 lung) [µM] | TGI (NCI/ADR-RES ovarian) [µM] | TGI (SNB-19 CNS) [µM] | GI50 (NCI-H23 lung) [µM] | GI50 (HCC-2998 colon) [µM] | GI50 (SW-620 colon) [µM] | GI50 (SK-MEL-5 melanoma) [µM] | GI50 (T-47D breast) [µM] | GI50 (A549 NSCLC) [µM] | GI50 (EKVX NSCLC) [µM] | GI50 (NCI-H522 lung) [µM] | GI50 (NCI/ADR-RES ovarian) [µM] | GI50 (SNB-19 CNS) [µM]
CCOC(=O)/C=C1\Nc2ccccc2C12CCc1c([nH]c3ccccc13)C2C(=O)OCC (stereo unspecified) | > 100 | > 100 | > 100 | > 100 | > 100 | > 100 | > 100 | > 100 | > 100 | > 100 | – | – | – | – | – | – | – | – | – | –
COC(=O)C(C)N1C(=O)c2ccccc2I1OC(C)=O (stereo unspecified) | > 100 | 38.4 | 29.5 | > 100 | 82.6 | > 100 | > 100 | > 100 | > 100 | > 100 | 40.3 | 17.4 | 15.5 | > 100 | 21 | > 100 | > 100 | 39.8 | > 100 | > 100
CCCCc1ccc2[n+](c1)C(C(=O)OCC)=PC2 (stereo unspecified) | > 100 | > 100 | > 100 | > 100 | – | > 100 | > 100 | > 100 | – | – | – | – | – | – | – | – | – | – | – | –
CC(C)=CCN(N=O)c1ncnc2nc[nH]c12 | > 100 | > 100 | > 100 | > 100 | > 100 | > 100 | > 100 | > 100 | > 100 | > 100 | – | – | – | – | – | – | – | – | – | –
CCOC(=O)c1c2c(n(C)c1-c1ccccc1)C(=O)C(C)=CC2=O | 29.7 | – | 19.8 | 21.5 | > 26 | 32.9 | 20.5 | 5.83 | 23.3 | 26.7 | – | – | – | – | – | – | – | – | – | –
CC(C)(C)OC(=O)NC(Cc1ccccc1)C(=O)N[C@H]1c2ccsc2/C(=N/O)[C@H]1O (stereo partly specified) | > 100 | > 100 | > 100 | > 100 | > 100 | > 100 | > 100 | – | > 100 | > 100 | – | – | – | – | – | – | – | – | – | –
O=C1c2ccccc2-c2ccc(NC(=O)C3CCCCC3C(=O)O)cc21 (stereo unspecified) | > 100 | – | > 100 | > 100 | > 100 | > 100 | > 100 | > 100 | > 100 | > 100 | – | – | – | – | – | – | – | – | – | –
O=CNc1cccc2c3c([nH]c12)CCCCCC3 | > 100 | > 100 | > 100 | > 100 | – | > 100 | > 100 | > 100 | > 100 | > 100 | – | – | – | – | – | – | – | – | – | –
CCOC(=O)C1C(c2cc(OC)c(O)c(OC)c2)c2cc3c(cc2OC1(C)O)OCO3 (stereo unspecified) | > 100 | – | > 100 | > 100 | – | > 100 | > 100 | – | – | > 100 | – | – | – | – | – | – | – | – | – | –
Cc1cc(NS(=O)(=O)c2ccc(Nc3c4ccccc4nc4c(C(=O)NCCN(C)C)ccc(Cl)c34)cc2)no1 | 16.1 | – | 15.5 | 10.1 | – | 17.3 | 21.2 | 3.86 | – | 9.68 | – | – | – | – | – | – | – | – | – | –
